A short description of this data set: Waters ACQUITY UPLC BEH C18, 100 × 2.1 mm, 1.7 µm, 40 °C, 0.3 to 0.4 mL/min, estimated dead time 0.63 min; A: water + 0.1% formic acid; B: methanol + 0.1% formic acid; gradient (min/%B) 0/0.5 0.1/0.5 10/80 10.1/99.5 12/99.5. To be noted: stereoisomer not certain.
Consider `O=C(OC1Cc2c(O)cc(O)cc2OC1c1cc(O)c(O)c(O)c1)c1cc(O)c(O)c(O)c1` (stereo not given), for which the LC retention time was 3.46 min.

For the compound `O=C1CC(c2ccc(O)cc2)Oc2c1c(O)cc(O)c2C1OC(CO)C(O)C(O)C1O` (stereo not given), the LC retention time is 3.04 min.

For `CC1C(=O)OC2C(O)C34C5CC(C(C)(C)C)C36C(OC(=O)C6O)OC4(C(=O)O5)C12O` (stereo not given), the LC retention time is 5.36 min.

As to `O=C1C(=Cc2ccc(O)c(O)c2)Oc2c1ccc(OC1OC(CO)C(O)C(O)C1O)c2O` (stereo not given), the LC retention time was 4 min.

In the case of `C=CC(O)CC(=NOS(=O)(=O)O)SC1OC(CO)C(O)C(O)C1O` (stereo not given), the LC retention time was 1.77 min.

For `CC(=O)OC1CC(COC2OC(CO)C(O)C(O)C2O)CNC12OC1CC3C4CCC5CC(OC6OC(CO)C(OC7OC(CO)C(OC8OCC(O)C(O)C8O)C(O)C7OC7OC(CO)C(O)C(O)C7O)C(O)C6O)CCC5(C)C4CCC3(C)C1C2C` (stereo not given), the LC retention time is 3.59 min.

For `Nc1ncnc2c1ncn2C1CC(O)C(CO)O1` (stereo not given), the LC retention time was 1.93 min.

As for `CCC1C2CC3C4N(C)c5ccccc5C45CC(C2C5O)N3C1O` (stereo not given), the LC retention time was 4.13 min.

Take `CC1(C)CC(O)C2(C)CCC3(C)C(=CCC4C5(C)CCC(OC6OC(C(=O)O)C(O)C(O)C6OC6OCC(O)C(O)C6O)C(C)(CO)C5CCC43C)C2C1` (stereo not given): the LC retention time was 7.44 min.

For the compound `O=C(C=Cc1ccc(O)cc1)NCCc1ccc(O)cc1`, the LC retention time is 5.06 min.

In the case of `COc1cc(C=CC(=O)OCC2OC(OC3C(c4c(O)cc5oc(-c6ccc(O)cc6)cc(=O)c5c4O)OC(CO)C(O)C3O)C(O)C(O)C2O)ccc1O` (stereo not given), the LC retention time is 4.21 min.

Turning to `OCC1OC(Oc2cc3c(OC4OC(CO)C(O)C(O)C4O)cc(O)cc3[o+]c2-c2ccc(O)c(O)c2)C(O)C(O)C1O` (stereo not given), the LC retention time was 2.5 min.

As to `O=C1C(O)Oc2ccccc2N1O` (stereo not given), the LC retention time is 1.83 min.

With `CC1=C(C)C(=O)OC(C(C)C2(O)CCC3C4C5OC5C5(O)CC=CC(=O)C5(C)C4CCC32C)C1` (stereo not given), the LC retention time was 6.82 min.

Turning to `CCC(C)C(N)C(=O)NC(CCC(N)=O)C(=O)O` (stereo not given), the LC retention time was 1.82 min.

Turning to `CCCCCCCCCCCCCCCC(=O)OCC(O)COP(=O)([O-])OCC[N+](C)(C)C` (stereo not given), the LC retention time is 9.91 min.

For the compound `CC(C)=CCCC(C)(O)C1CCC2(C)C1C(O)CC1C3(C)CCC(O)C(C)(C)C3C(OC3OC(CO)C(O)C(O)C3O)CC12C` (stereo not given), the LC retention time was 6.29 min.

As for `CC1(C)CC(=O)C2(C)CCC3(C)C(=CCC4C5(C)CCC(OC6OC(C(=O)O)C(O)C(O)C6OC6OC(CO)C(O)C(O)C6OC6OC(CO)C(O)C(O)C6O)C(C)(CO)C5CCC43C)C2C1` (stereo not given), the LC retention time is 7.49 min.

As to `C=CC1CN2CCc3c([nH]c4ccccc34)C2CC1C(=COC)C(=O)OC` (stereo not given), the LC retention time was 5.68 min.

In the case of `CCOC1OC(=O)c2cc3ccc4c(c3c(-c3ccc5c(c3)OCO5)c21)OCO4` (stereo not given), the LC retention time is 8.82 min.

As for `CC(O)(CC(=O)O)CC(=O)OCC1OC(Oc2c(-c3ccc(O)cc3)oc3cc(O)cc(O)c3c2=O)C(O)C(O)C1O` (stereo not given), the LC retention time was 4.5 min.

On to `COc1ccc(C2CC(=O)c3c(O)cc(OC4OC(COC5OC(C)C(O)C(O)C5O)C(O)C(O)C4O)cc3O2)cc1O` (stereo not given), for which the LC retention time is 4.51 min.

In the case of `CC(=O)OC1C(C(=O)O)OC(OC2C(O)C(O)OC(CO)C2O)C(O)C1OC1OC(CO)C(O)C(O)C1O` (stereo not given), the LC retention time is 5.48 min.

As to `O=C(O)c1cc2c(c3c1c([N+](=O)[O-])cc1ccc(O)cc13)OCO2`, the LC retention time is 5.96 min.

On to `O=c1c(OC2OC(CO)C(O)C(O)C2O)c(-c2cc(O)c(O)c(OC3OC(CO)C(O)C(O)C3O)c2)oc2cc(O)cc(O)c12` (stereo not given), for which the LC retention time was 3.34 min.

Regarding `Oc1cc(O)c2cc(OC3OCC(O)C(O)C3O)c(-c3ccc(O)c(O)c3)[o+]c2c1` (stereo not given), the LC retention time is 3.01 min.

Consider `CC1OC(OC2C(OC3C(OC4CCC5(C)C(CCC6(C)C5CC=C5C7CC(C)(C)CC(O)C7(C)CCC56C)C4(C)CO)OC(C(=O)O)C(O)C3O)OCC(O)C2O)C(O)C(O)C1O` (stereo not given), for which the LC retention time is 7.28 min.

Take `CCCCCC=CCC(O)C(O)CCCCCCCC(=O)O` (stereo not given): the LC retention time was 8.54 min.

In the case of `COc1cc2c(c(OC)c1OC)-c1c(cc(OC)c(OC)c1OC)CC(C)(O)C(C)C2` (stereo not given), the LC retention time is 7.59 min.

Turning to `CC(=O)N1CC(C)CCC12OC1CC3C4CC=C5CC(O)CCC5(C)C4CCC3(C)C1C2C` (stereo not given), the LC retention time was 7.36 min.

With `CC(C)=CCc1cc(-c2coc3c(C(C=C(C)C)c4cc(-c5coc6cc(O)cc(O)c6c5=O)ccc4O)c(O)cc(O)c3c2=O)ccc1O` (stereo not given), the LC retention time is 8.22 min.

In the case of `CCN1CC2(COC)C(O)CC(OC)C34C5CC6(O)C(OC)C(O)C(OC(C)=O)(C5C6OC(=O)c5ccccc5)C(C(OC)C23)C14` (stereo not given), the LC retention time is 5.97 min.

Take `O=c1c(O)c(-c2ccc(OC3OC(CO)C(O)C(O)C3O)c(O)c2)oc2cc(O)cc(O)c12` (stereo not given): the LC retention time was 4.51 min.

Take `O=c1cc(-c2ccc(O)cc2)oc2c(C3OC(CO)C(O)C(O)C3O)c(O)c(C3OC(CO)C(O)C(O)C3O)c(O)c12` (stereo not given): the LC retention time was 3.3 min.

In the case of `OCC(Cc1cccc(O)c1)C(CO)Cc1cccc(O)c1` (stereo not given), the LC retention time was 5.26 min.

On to `CC1CCC2C(C)C3C(CC4C5C(=O)C=C6CC(OC7OC(CO)C(OC8OC(C)C(O)C(O)C8O)C(O)C7OC7OC(C)C(O)C(O)C7O)CCC6(C)C5CCC43C)N2C1` (stereo not given), for which the LC retention time is 4.52 min.

In the case of `O=c1c(OC2OC(CO)C(O)C(O)C2O)c(-c2ccc(O)cc2)oc2cc(O)cc(O)c12` (stereo not given), the LC retention time is 4.37 min.

On to `CC=C1CN(C)C2CC3(C(=O)N(OC)c4ccccc43)C3CC1C2CO3` (stereo not given), for which the LC retention time is 4.63 min.

On to `COc1cc(C=CC(=O)OC2C(OC3C(Oc4ccc(-c5cc(=O)c6c(O)cc(O)cc6o5)cc4)OC(C(=O)O)C(O)C3O)OC(C(=O)O)C(O)C2O)ccc1O` (stereo not given), for which the LC retention time is 4.76 min.

Take `CSCC(NC(=O)CCC(N)C(=O)O)C(=O)O` (stereo not given): the LC retention time is 2.02 min.

Turning to `O=S(=O)(O)ON=C(CC(O)c1ccccc1)SC1OC(CO)C(O)C(O)C1O` (stereo not given), the LC retention time is 2.71 min.

For `O=C1CCC(C(=O)O)N1` (stereo not given), the LC retention time was 1.73 min.

In the case of `CCC12CCCN3CCc4c(n(c5ccccc45)C(=O)C1)C32` (stereo not given), the LC retention time was 4.65 min.

Consider `COc1ccc2c(c1)OC(OC1OC(C(=O)O)C(O)C(O)C1O)C(O)N2` (stereo not given), for which the LC retention time is 2.19 min.

Take `CCC(C)C(N)C(=O)NC(CCC(=O)O)C(=O)O` (stereo not given): the LC retention time is 1.98 min.

For `CC1OC(OCC2OC(Oc3c(-c4ccc(O)c(O)c4)oc4cc(O)cc(O)c4c3=O)C(O)C(O)C2O)C(O)C(O)C1O` (stereo not given), the LC retention time was 3.86 min.

Consider `COc1ccc(-c2cc(=O)c3c(O)cc(O)cc3o2)cc1-c1c(O)cc(O)c2c(=O)cc(-c3ccc(O)cc3)oc12`, for which the LC retention time is 6.07 min.

Regarding `CC(=O)OC1CC(COC2OC(CO)C(O)C(O)C2O)CNC12OC1CC3C4CCC5CC(OC6OC(CO)C(OC7OC(CO)C(OC8OC=C(O)C(O)C8O)C(O)C7OC7OC(CO)C(O)C(O)C7O)C(O)C6O)CCC5(C)C4CCC3(C)C1C2C` (stereo not given), the LC retention time was 3.88 min.

As to `CC(C)C(O)(C(=O)OCC1=CCN2CCC(O)C12)C(C)O` (stereo not given), the LC retention time is 2.75 min.

As for `O=c1cc(-c2ccc(O)cc2)oc2c(C3OC(CO)C(O)C3O)c(O)c(C3OC(CO)C(O)C(O)C3O)c(O)c12` (stereo not given), the LC retention time is 3.55 min.

With `CCC1CN2CCc3c([nH]c4ccccc34)C2CC1C(=COC)C(=O)OC` (stereo not given), the LC retention time was 5.85 min.

As for `CC1OC(Oc2cc(O)c3c(=O)c(OC4OC(C)C(O)C(O)C4O)c(-c4ccc(O)c(O)c4)oc3c2)C(O)C(O)C1O` (stereo not given), the LC retention time was 3.67 min.

For `CC(CCC1(O)OC2CC3C4CCC5CC(OC6OC(CO)C(O)C(O)C6OC6OC(CO)C(O)C(O)C6O)C(O)CC5(C)C4CCC3(C)C2C1C)COC1OC(CO)C(O)C(O)C1O` (stereo not given), the LC retention time is 4.64 min.

On to `COc1ccc2c(c1)[nH]c1c(C)nccc12`, for which the LC retention time is 4.11 min.

As to `CCOC1OC2c3cc4c(cc3CCN(C)C2c2ccc3c(c21)OCO3)OCO4` (stereo not given), the LC retention time is 5.15 min.

`C=CC1C(OC2OC(CO)C(O)C(O)C2O)OC=C(C(=O)O)C1Cc1nccc2c1[nH]c1ccccc12` (stereo not given): the LC retention time was 3.72 min.

Take `CCCCCCCCC=CCCCCCCCC(=O)OCC(O)COP(=O)([O-])OCC[N+](C)(C)C` (stereo not given): the LC retention time was 10.1 min.

For `COc1cc(C=CC(=O)O)cc(OC)c1O`, the LC retention time was 4.21 min.

`O=C(O)CC(=O)NC(Cc1c[nH]c2ccccc12)C(=O)O` (stereo not given): the LC retention time was 4.35 min.

As to `O=C1CC2OCC=C3CN4CCC56c7ccccc7N1C5C2C3CC46` (stereo not given), the LC retention time is 3.46 min.

On to `COCC12CCC(OC)C34C5CC6(O)C(OC)C(O)C(OC(C)=O)(C5C6OC(=O)c5ccccc5)C(C(OC)C13)C4N(C)C2` (stereo not given), for which the LC retention time is 5.97 min.

For `COc1cc(-c2cc(=O)c3c(O)cc(OC4OC(COC(=O)CC(=O)O)C(O)C(O)C4O)cc3o2)ccc1O` (stereo not given), the LC retention time is 4.8 min.

As to `NC(Cc1ccc(O)cc1)C(=O)O` (stereo not given), the LC retention time was 1.79 min.

Regarding `O=c1cc(-c2ccc(O)cc2)oc2cc(O)cc(O)c12`, the LC retention time is 5.89 min.

In the case of `COC(=O)C12CC3CC(C(C)O)C1N(CCc1c2[nH]c2ccc(OC)cc12)C3` (stereo not given), the LC retention time was 4.61 min.

As for `CN1CCCCC1c1ccc(-c2cccnc2)nc1` (stereo not given), the LC retention time is 2.37 min.

In the case of `CCC1CN2CCc3c([nH]c4cccc(OC)c34)C2CC1C(=COC)C(=O)OC` (stereo not given), the LC retention time is 5.54 min.

For `COc1cc(-c2oc3cc(O)cc(O)c3c(=O)c2OC2OC(CO)C(O)C(O)C2O)cc(OC)c1O` (stereo not given), the LC retention time was 4.36 min.

`COc1ccc(Cc2nccc3cc(OC)c(OC)cc23)cc1OC`: the LC retention time is 4.49 min.

As for `COc1cc(C(O)C(CO)Oc2c(OC)cc(-c3cc(=O)c4c(O)cc(O)cc4o3)cc2OC)ccc1O` (stereo not given), the LC retention time is 6.2 min.

(Values after the RepoRT retention time repository.)
